Source: ChEMBL document CHEMBL4665689, “Picrorhizones A-H, Polyprenylated Benzoylphloroglucinols from the Stem Bark of Garcinia picrorhiza” (J Nat Prod, 2020)

What was measured:
Type in all cases: functional, cell-based
HT-29 = experiment: Cytotoxicity activity against human HT-29 cells assessed as reduction in cell viability after 72 hrs by MTT assay; settings: HT-29, 72 h
KB = experiment: Cytotoxicity activity against human KB cells assessed as reduction in cell viability after 72 hrs by MTT assay
MCF7 = experiment: Cytotoxicity activity against human MCF7 cells assessed as reduction in cell viability after 72 hrs by MTT assay; settings: MCF7, 72 h
HeLa S3 = experiment: Cytotoxicity activity against human HeLa S3 cells assessed as reduction in cell viability after 72 hrs by MTT assay; settings: HeLa S3, 72 h
HepG2 = experiment: Cytotoxicity activity against human HepG2 cells assessed as reduction in cell viability after 72 hrs by MTT assay; settings: HepG2, 72 h

SMILES	IC50 (HT-29) [µM]	IC50 (KB) [µM]	IC50 (MCF7) [µM]	IC50 (HeLa S3) [µM]	IC50 (HepG2) [µM]
CC(C)=CC[C@@H]1C[C@]23C[C@@H](CC=C(C)C)C(C)(C)[C@](CC=C(C)C)(C(=O)C(C(=O)c4ccc(O)c(O)c4)=C2OC1(C)C)C3=O	> 10	5.3	7.2	> 10	> 10
C=C(C)[C@H]1C[C@@H](C[C@@]23C[C@@H](/C=C/C(C)C)C(C)(C)[C@@](CC=C(C)C)(C2=O)c2oc4cc(O)c(O)cc4c(=O)c2C3=O)C1(C)C	> 10	5.2	> 10	6.2	> 10
C=C(C)[C@H]1C[C@@H](C[C@]23C[C@@H](/C=C/C(C)C)C(C)(C)[C@](C/C=C(\C)CO)(C(=O)C(C(=O)c4ccc(O)c(O)c4)=C2O)C3=O)C1(C)C	–	> 10	–	8	–
C=C(C)[C@H]1C[C@@H](C[C@]23C[C@@H](/C=C/C(C)C)C(C)(C)[C@](CC=C(C)C)(C(=O)C(C(=O)c4ccc(O)c(O)c4)=C2O)C3=O)C1(C)C	> 10	7	> 10	7.2	> 10
CC(=O)[C@H]1C[C@@H](C[C@]23C[C@@H](/C=C/C(C)C)C(C)(C)[C@](CC=C(C)C)(C(=O)C(C(=O)c4ccc(O)c(O)c4)=C2O)C3=O)C1(C)C	> 10	7.4	> 10	> 10	> 10
C=C(C)[C@H]1C[C@@H](C[C@]23C[C@@H](/C=C/C(C)C)C(C)(C)[C@@]4(C[C@@H](C(C)(C)O)OC4=C(C(=O)c4ccc(O)c(O)c4)C2=O)C3=O)C1(C)C	> 10	5.9	9.3	6	9.4
C=C(C)[C@H]1C[C@@H](C[C@]23C[C@@H](/C=C/C(C)C)C(C)(C)[C@](CC=C(C)C)(C(=O)C(C(=O)c4ccccc4)=C2O)C3=O)C1(C)C	> 10	9.9	> 10	> 10	> 10
COc1cccc2c1C(=O)c1c(O)c3c(c(O)c1C2=O)C[C@@](O)(C(=O)CO)C[C@@H]3O[C@H]1C[C@H](N)[C@H](O)[C@H](C)O1 [DOXORUBICIN]	0.59	0.02	–	0.15	1
